Results taken from the NIST ThermoML archive (doi:10.1016/j.jct.2017.05.026).
± gives the expanded uncertainty stated by the source.

Columns and labels:
[1] = excess molar enthalpy (molar enthalpy of mixing); xn = mol fraction of the nth substance listed; details: 298 K, 100 kPa, Crystal, Calvet calorimetry
[2] = xn = mol fraction of the nth substance listed; details: 298 K, 100 kPa, Crystal, X-ray diffraction

Structure (SMILES): [O-2].[O-2].[Th+4] [thorium dioxide] + [O-2].[O-2].[U+4]
- excess molar enthalpy ([1]; x1 = 0.2209): -1.65 ± 0.765 kcal/mol
- excess molar enthalpy ([1]; x1 = 0.4319): 0.37 ± 1.12 kcal/mol
- excess molar enthalpy ([1]; x1 = 0.7519): -0.282 ± 0.669 kcal/mol
- mass density ([2]; x1 = 0.2209): 10730 ± 90 kg/m3
- mass density ([2]; x1 = 0.4319): 10510 ± 90 kg/m3
- mass density ([2]; x1 = 0.7519): 10070 ± 90 kg/m3

Structure (SMILES): [O-2].[O-2].[Zr+4] [zirconium oxide] + [O-2].[O-2].[U+4]
- excess molar enthalpy ([1]; x1 = 0.0847): -2.18 ± 1 kcal/mol
- excess molar enthalpy ([1]; x1 = 0.1557): -2.12 ± 0.837 kcal/mol
- excess molar enthalpy ([1]; x1 = 0.2937): 0.194 ± 0.765 kcal/mol
- mass density ([2]; x1 = 0.0847): 10630 ± 90 kg/m3
- mass density ([2]; x1 = 0.1557): 10260 ± 90 kg/m3
- mass density ([2]; x1 = 0.2937): 9570 ± 70 kg/m3
